Data as given in ChEMBL document CHEMBL1201862, “PubChem BioAssay data set” (2004).
The source made the active and inactive calls.

Columns and labels:
[1] = target: T1, Rac GTPase-activating protein 1 (Homo sapiens, UniProt Q9H0H5); assay: MgcRacGAP GTPase-activating activity inhibitors, confirmation, biochemical, ADP Hunter fluorescence, primary and confirmatory (AID 624330); assay type: functional
T1 sequence (Q9H0H5 whole entry): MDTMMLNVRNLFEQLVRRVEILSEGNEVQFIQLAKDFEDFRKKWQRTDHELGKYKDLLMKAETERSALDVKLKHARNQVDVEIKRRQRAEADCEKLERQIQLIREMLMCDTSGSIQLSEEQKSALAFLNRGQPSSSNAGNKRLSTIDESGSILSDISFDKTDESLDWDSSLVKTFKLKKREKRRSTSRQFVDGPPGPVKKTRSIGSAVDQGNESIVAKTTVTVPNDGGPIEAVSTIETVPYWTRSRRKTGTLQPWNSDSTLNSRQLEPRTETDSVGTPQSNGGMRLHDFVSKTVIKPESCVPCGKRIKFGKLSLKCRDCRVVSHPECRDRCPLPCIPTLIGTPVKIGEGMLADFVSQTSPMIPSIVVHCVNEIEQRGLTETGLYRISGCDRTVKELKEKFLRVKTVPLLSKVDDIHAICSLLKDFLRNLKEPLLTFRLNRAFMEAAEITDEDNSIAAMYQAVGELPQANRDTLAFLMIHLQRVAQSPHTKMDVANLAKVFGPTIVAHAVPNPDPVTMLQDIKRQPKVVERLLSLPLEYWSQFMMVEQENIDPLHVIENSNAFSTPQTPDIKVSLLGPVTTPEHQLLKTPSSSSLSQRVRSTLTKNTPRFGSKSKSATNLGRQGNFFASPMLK

[2] = target: FAD-linked sulfhydryl oxidase ALR (Homo sapiens, UniProt P55789); assay: inhibitors of human ALR sulfhydryl oxidase, dose response, biochemical, H2O2 detection, luminescence, cherry-pick (AID 493248)
FAD-linked sulfhydryl oxidase ALR, sequence (P55789 whole entry): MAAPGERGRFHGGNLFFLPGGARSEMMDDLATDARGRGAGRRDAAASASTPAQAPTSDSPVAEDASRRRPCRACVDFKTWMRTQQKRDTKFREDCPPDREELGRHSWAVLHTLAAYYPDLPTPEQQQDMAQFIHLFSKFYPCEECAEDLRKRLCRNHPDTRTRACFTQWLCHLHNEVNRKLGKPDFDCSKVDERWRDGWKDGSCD

[3] = tested on: H9c2; assay: cells; assay type: functional, cell-based; details: Rattus norvegicus, H9c2, Myocardium;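 also: confirmatory concentration-response retest of ultra-high-throughput screening hits for modulation of myocardial damage; cell death induced by hydrogen peroxide oxidative stress; compound pretreatment for 60 min then peroxide exposure for 2 h; potency is for protecting the cells against peroxide damage rather than for killing them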
[4] = target: T2, Histone-lysine N-methyltransferase NSD2 (Homo sapiens, UniProt O96028); assay type: biochemical
T2 sequence (O96028 whole entry): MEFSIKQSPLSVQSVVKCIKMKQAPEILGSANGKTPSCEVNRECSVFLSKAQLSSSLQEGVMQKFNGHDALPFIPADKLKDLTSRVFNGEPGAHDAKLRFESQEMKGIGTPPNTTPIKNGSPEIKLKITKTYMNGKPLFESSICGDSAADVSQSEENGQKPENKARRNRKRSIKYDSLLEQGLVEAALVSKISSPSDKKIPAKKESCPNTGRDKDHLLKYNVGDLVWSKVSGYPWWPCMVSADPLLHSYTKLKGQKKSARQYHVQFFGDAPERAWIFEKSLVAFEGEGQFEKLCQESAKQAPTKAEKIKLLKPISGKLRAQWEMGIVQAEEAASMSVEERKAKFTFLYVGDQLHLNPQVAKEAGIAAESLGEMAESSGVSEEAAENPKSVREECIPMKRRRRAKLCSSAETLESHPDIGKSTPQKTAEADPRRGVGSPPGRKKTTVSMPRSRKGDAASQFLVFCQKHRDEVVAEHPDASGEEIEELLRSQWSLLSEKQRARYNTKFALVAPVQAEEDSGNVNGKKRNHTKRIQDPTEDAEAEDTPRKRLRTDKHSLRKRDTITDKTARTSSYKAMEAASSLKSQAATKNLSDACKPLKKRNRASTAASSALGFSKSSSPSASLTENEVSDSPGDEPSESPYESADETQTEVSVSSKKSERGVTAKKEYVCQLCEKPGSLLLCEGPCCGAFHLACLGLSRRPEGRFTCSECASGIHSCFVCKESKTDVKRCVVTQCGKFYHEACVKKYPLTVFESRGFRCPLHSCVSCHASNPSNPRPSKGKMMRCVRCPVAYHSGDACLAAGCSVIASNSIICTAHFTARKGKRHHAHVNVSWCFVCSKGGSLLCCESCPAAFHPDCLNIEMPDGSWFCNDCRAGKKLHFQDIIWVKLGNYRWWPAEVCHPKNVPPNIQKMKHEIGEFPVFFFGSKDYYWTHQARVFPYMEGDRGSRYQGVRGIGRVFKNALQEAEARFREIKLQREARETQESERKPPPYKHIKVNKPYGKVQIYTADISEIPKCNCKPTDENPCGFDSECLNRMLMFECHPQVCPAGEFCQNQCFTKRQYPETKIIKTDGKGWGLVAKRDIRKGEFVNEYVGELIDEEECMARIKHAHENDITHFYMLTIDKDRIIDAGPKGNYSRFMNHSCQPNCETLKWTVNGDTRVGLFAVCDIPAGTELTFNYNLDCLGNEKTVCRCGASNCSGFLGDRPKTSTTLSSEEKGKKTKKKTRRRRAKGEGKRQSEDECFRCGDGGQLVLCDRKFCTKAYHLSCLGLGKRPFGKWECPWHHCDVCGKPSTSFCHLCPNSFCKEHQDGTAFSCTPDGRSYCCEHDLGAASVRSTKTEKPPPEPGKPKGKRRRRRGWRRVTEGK

[5] = Vero E6 cell cytotoxicity, dose response, cytotoxicity control for non-replicating M. tuberculosis project, secondary assay (AID 492998); assay type: functional, VeroE6; details: Vero C1008
[6] = cells; assay type: functional
[7] = THP-1 cell cytotoxicity, dose response, cytotoxicity control for non-replicating M. tuberculosis project (AID 489025); assay type: functional
[8] = tested on: BJ; assay: cells; assay type: functional, cell-based; details: Homo sapiens
[9] = tested on: BJ; assay: cytotoxicity toward BJ-TERT-LT-ST fibroblasts, dose response, cell-based, RAS-independent, luminescence (AID 1935); assay type: functional; details: Homo sapiens;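 also: BJ fibroblasts immortalized with TERT plus LT and ST oncogenes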
[10] = cytotoxicity toward DRD oncogenic fibroblasts, dose response, cell-based, non-viral oncogenic, luminescence (AID 1934); assay type: functional; details: Homo sapiens
[11] = inhibitors of firefly luciferase expression or activity, dose response, H4 neuroglioma cells, luminescence (AID 1990); assay type: functional, cell-based
[12] = tested on: Vero; assay: cells; assay type: functional; details: Chlorocebus sabaeus
[13] = Luminescence Cell-Based Dose Response HTS to Identify Inhibitors of 5'UTR Stem-Loop Driven Prion Protein mRNA Translation in H4 Neuroglioblastoma Cells. [Related pubchem assays: 1827 (Project Summary), 1813 (Primary HTS)]; assay type: functional
[14] = target: Large T antigen (Simian virus 40, UniProt P03070); assay type: functional, Betapolyomavirus macacae;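 also: Confirmatory-stage PubChem screen for compounds that inhibit SV40 T antigen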
Large T antigen, sequence (P03070 whole entry): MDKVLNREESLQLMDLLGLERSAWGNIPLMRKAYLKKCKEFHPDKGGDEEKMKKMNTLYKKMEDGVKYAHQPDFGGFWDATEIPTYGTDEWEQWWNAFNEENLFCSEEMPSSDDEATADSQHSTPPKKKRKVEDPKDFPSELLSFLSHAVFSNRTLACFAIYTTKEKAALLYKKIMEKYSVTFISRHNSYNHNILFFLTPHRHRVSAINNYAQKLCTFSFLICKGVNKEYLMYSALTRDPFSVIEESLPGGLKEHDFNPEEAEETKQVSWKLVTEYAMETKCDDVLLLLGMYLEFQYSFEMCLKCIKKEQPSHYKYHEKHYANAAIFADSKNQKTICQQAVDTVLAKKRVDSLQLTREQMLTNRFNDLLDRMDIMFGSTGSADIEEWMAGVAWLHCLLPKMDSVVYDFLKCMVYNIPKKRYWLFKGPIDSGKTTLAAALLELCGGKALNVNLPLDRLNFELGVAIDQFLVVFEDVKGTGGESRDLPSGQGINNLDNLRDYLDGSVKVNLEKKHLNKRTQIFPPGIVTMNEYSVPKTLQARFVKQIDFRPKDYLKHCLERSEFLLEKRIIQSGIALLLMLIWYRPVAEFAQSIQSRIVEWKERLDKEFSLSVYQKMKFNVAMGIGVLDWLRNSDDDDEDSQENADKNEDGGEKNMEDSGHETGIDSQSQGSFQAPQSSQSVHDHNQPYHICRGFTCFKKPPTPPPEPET

[15] = target: Cytochrome P450 2C9 (Homo sapiens, UniProt P11712)
Cytochrome P450 2C9, sequence (P11712 whole entry): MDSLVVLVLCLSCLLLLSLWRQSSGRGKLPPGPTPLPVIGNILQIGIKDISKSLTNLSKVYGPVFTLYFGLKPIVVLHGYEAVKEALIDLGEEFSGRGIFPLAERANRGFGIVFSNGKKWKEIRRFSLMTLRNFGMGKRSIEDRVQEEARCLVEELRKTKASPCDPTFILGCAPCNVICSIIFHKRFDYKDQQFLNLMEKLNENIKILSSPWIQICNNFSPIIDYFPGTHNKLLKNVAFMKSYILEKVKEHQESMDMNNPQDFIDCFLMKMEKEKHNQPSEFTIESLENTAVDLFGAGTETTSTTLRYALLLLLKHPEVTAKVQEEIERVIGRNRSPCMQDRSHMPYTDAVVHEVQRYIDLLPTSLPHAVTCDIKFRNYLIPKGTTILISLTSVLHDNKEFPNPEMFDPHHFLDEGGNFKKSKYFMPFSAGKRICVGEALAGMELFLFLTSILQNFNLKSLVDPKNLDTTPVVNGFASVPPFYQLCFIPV

[16] = target: Cytochrome P450 2D6 (Homo sapiens, UniProt P10635);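 also: CYP2D6 member of a cytochrome P450 panel assay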
Cytochrome P450 2D6, sequence (P10635 whole entry): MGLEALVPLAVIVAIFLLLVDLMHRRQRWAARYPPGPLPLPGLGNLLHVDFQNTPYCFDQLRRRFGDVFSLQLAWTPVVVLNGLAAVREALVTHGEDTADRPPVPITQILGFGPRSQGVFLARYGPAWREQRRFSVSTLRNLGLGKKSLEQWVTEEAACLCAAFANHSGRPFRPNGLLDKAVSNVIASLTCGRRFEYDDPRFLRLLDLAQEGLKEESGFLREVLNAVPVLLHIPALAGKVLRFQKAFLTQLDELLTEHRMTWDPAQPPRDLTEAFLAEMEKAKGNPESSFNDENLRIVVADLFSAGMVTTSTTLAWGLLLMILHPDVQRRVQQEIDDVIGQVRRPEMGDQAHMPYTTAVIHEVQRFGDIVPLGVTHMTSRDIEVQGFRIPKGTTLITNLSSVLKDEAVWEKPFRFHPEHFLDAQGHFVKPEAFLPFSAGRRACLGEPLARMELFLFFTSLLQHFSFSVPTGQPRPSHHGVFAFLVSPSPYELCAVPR

[17] = cytotoxicity toward NIH3T3 fibroblasts, dose response, counter-screen, cell-based, ATP luminescence, mouse fibroblasts (AID 2010); assay type: functional;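 also: cells exposed to compound for about 90 hours before reading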
[18] = inhibitors of intracellular T. cruzi replication, confirmation, NIH3T3 host cells, beta-gal luminescence (AID 2044); assay type: functional, cell-based;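 also: intracellular parasites grown in NIH/3T3 mouse fibroblasts as host cells; luminescent beta-galactosidase reporter signal from transgenic T. cruzi replicating inside host cells; inhibitors lower the luminescence signal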

Cc1ccn2c(NC3CCCC3)c(-c3ccncc3)nc2c1
IC50 [1]: 55.3 µM (active)
AC50 [2]: 1.45 µM (active)

Cc1ccc(OCCOC(=O)CCc2nc(O)c3ccccc3n2)cc1
IC50 [3]: 10.6 µM (active)

CN(C)c1ccc(C2N(c3ccc(F)cc3)C(=O)C3CCCN32)cc1 (stereo not given)
AC50 [2]: 49.4 µM (active)

Oc1nc(N2CCN(c3ccccc3)CC2)nc2c1CCCC2
IC50 [3]: > 79 µM (inactive)

Cc1ccc2c(c1)CCCN2CC(=O)N(C)c1c(N)n(Cc2ccccc2)c(=O)[nH]c1=O
AC50 [2]: 20 µM (active)

O=C(CC(C(=O)c1ccccc1)c1ccccc1)c1ccccc1 (stereo not given)
IC50 [3]: > 79 µM (inactive)

CCNCCNc1ccc(Cl)cc1[N+](=O)[O-]
AC50 [4]: > 20 µM (inactive)

C/C(=N\NC(=O)CCCNc1ccc(C)cc1)c1ccccn1
IC50 [3]: 13.6 µM (active)
CC50 [5]: 14.3 µM (active)
IC50 [6]: 18.4 µM (active)
CC50 [7]: 13.1 µM (active)

Cc1nc(-[n+]2nc(-c3ccncc3)nn2-c2ccccc2)sc1C
AC50 [4]: > 20 µM (inactive)

O=C(N/N=C/c1ccc(Cl)cc1)c1[nH]nc2c1CCCC2
EC50 [8]: 39.2 µM (active)
EC50 [9]: 0.669 µM (active)
EC50 [10]: 0.657 µM (active)
EC50 [11]: 8.55 µM (inconclusive)
CC50 [12]: 2.59 µM (active)
EC50 [13]: > 120 µM (not active)

C/C(=N\Nc1nc2ccccc2nc1C)c1ccccc1O
CC50 [5]: > 20 µM (active)
IC50 [6]: 2.54 µM (active)
CC50 [7]: > 40 µM (active)

COc1cc(/C=N/Nc2nc3ccccc3o2)cc(OC)c1O
IC50 [14]: 8.87 µM (active)
AC50 [2]: 0.025 µM (active)

O=[N+]([O-])c1ccc(Cl)c(/C=N/N2CCN(Cc3ccccc3)CC2)c1
AC50 [15]: inconclusive
AC50 [16]: 11.2 µM (inconclusive)

C/C(=N\Nc1cccc(Cl)c1)c1ccncc1
EC50 [17]: > 60 µM (not active)
AC50 [2]: 0.536 µM (active)
EC50 [18]: 1.42 µM (active)

CNc1nc(N)c(C(=O)C(C)(C)C)s1
AC50 [2]: 4.57 µM (active)
